This note sets out measurements from patent publication US7579356B2, “Thia-tetraazaacenaphthylene kinase inhibitors” (Janssen Pharmaceutica NV, priority 2005, dated 2009).

In one assay the target is T1, HER-2 (Homo sapiens, UniProt P04626).
T1 construct: His6 with thrombin site (N); purchased Proqinase (Freiburg, Germany)
Put plainly: HER-2 Kinase Assay. The class given is biochemical. The following applies: for inhibition at 1 µM: test concentration of 1 μM; for IC50: value in parentheses. In outline:
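GST/HIS6-tagged HER-2 aa 679–1255 kinase with biotinylated polyGluTyr (1.5 ng/μL), 1 μM ATP plus γ-33P-ATP, Mg2+/Mn2+, DTT, Hepes pH 7.5; 1 h at 30 °C. Substrate phosphorylation captured on streptavidin scintillation plates after EDTA/PBS washes; values are % inhibition at 1 μM or IC50.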

In a further assay the test system is BT474 breast carcinoma. Put plainly: Cell Proliferation Inhibition Assay, BT474 (14C-thymidine). The class given is cell-based. To be noted: Homo sapiens, BT-474, C14 method. From the text:
(§1) Cell Proliferation Inhibition Assay
(§2) The ability of a test compound to inhibit unregulated cell proliferation may be determined by measuring incorporation of ^14C-labelled thymidine into newly synthesized DNA within cell lines derived from carcinomas originating from several tissues. Accordingly, the effect of a test compound on proliferation of cells with a variety of phenotypes may be determined.
(§3) Carcinoma cell lines used include the HeLa cervical adenocarcinoma from the American Type Culture Collection (ATCC Cat. #CCL2), A375 malignant melanoma (ATCC Cat. #CRL-1619), HCT-116 colon carcinoma (ATCC Cat. #CCL-247), SKBR3 breast carcinoma (ATCC Cat. #HTB-30) and BT474 breast carcinoma (ATCC Cat. #HTB-20).
(§4) The carcinoma cells were trypsinized and counted. The cells (3000-8000 count) were added to each well of a 96-well CytoStar tissue culture treated scintillating microplate (Amersham #RPNQ0160) in complete medium (100 μL) and the plate was then incubated in complete medium for 24 hrs at 37° C. in an inert atmosphere containing 5% CO2.
(§5) Test compound (1 μL) in 100% DMSO was added to the plate test-wells with DMSO only added to control-wells. The plate was incubated in complete medium for a second 24 hr period at 37° C. in an atmosphere containing 5% CO2.
(§6) An aliquot of a solution of Methyl ^14C-thymidine (56 mC/mmol) (NEN #NEC568 or AMersham #CFA532) and complete medium (20 uL to provide 0.2 μCl/well) was then added to each well and the plate was incubated for a third 24 hr period at 37° C. in an atmosphere containing 5% CO2.
(§7) The plate contents were then discarded, the plate washed twice with PBS (200 μL) and then PBS (200 μL) was added to each well. The plate was sealed and the degree of methyl ^14C-thymidine incorporation was quantified on a Packard Top Count.
(§8) Cell proliferation of the Hela cell line was measured using the ATP-Lite method as described in the ATP Lite Kit (Perkin-Elmer Kit Number 6106941) or the C^14 method as described above. Cell proliferation of the other cell lines was measured using the C^14 method.

In the next assay the target is T2, c-Src kinase (human) (Homo sapiens, UniProt P12931).
T2 construct: purchased Upstate Biotechnology, Lake Placid, N.Y
T2 sequence (P12931 whole entry): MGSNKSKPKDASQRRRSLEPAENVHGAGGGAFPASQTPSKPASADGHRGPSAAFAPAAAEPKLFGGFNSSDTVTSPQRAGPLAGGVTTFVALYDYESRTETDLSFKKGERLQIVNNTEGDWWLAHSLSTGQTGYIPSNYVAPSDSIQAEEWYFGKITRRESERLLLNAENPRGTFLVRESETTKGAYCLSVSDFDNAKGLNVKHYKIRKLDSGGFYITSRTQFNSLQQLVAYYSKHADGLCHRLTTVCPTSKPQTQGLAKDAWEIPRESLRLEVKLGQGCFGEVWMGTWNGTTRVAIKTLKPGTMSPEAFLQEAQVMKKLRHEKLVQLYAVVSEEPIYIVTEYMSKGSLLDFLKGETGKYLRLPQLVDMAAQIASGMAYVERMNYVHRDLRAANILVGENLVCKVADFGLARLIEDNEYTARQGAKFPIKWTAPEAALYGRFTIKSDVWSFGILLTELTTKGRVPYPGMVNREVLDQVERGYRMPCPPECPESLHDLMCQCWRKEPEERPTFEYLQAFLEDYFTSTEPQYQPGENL
Description: c-Src Kinase Assay. The class given is biochemical. To be noted: for inhibition at 2 µM: test concentration of 2 μM, multiple values are separate assay results. The method, boiled down: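 Inhibition was read as 33P incorporation, counted on P30 filtermats, after a 40 min, 30° C reaction. Human c-Src acted on 100 μM Cdc2 peptide with 5 μM ATP (final), pH 7.0 MOPS/MgCl2. Values are percent inhibition at 2 μM compound, or IC50 where determined.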

The next assay has as its system SKBR3 breast carcinoma. Description: Cell Proliferation Inhibition Assay, SKBR3 (14C-thymidine). Format: cell-based. The following applies: Homo sapiens, SK-BR-3, C14 method.
Text: as §1, §2, §3, §4, §5, §6, §7, §8

The subject of assay [1] is HeLa cervical adenocarcinoma. Put plainly: Cell Proliferation Inhibition Assay, Hela (ATP Lite). Format: cell-based. The following applies: Homo sapiens, ATP-Lite method.
Text: as §1, §2, §3, §4, §5, §8

A further assay has as its system A375 malignant melanoma. Description: Cell Proliferation Inhibition Assay, A375 (14C-thymidine). The following applies: Homo sapiens, A-375. The class given is cell-based.
Text: as §1, §2, §3, §4, §5, §6, §7, §8

For assay [2], the system named is HeLa cervical adenocarcinoma. Description: Cell Proliferation Inhibition Assay, Hela (C14 method). The class given is cell-based. To be noted: Homo sapiens, Table 7.
Text: as §1, §2, §3, §4, §5, §6, §7, §8

T1 sequence (P04626 679-1255): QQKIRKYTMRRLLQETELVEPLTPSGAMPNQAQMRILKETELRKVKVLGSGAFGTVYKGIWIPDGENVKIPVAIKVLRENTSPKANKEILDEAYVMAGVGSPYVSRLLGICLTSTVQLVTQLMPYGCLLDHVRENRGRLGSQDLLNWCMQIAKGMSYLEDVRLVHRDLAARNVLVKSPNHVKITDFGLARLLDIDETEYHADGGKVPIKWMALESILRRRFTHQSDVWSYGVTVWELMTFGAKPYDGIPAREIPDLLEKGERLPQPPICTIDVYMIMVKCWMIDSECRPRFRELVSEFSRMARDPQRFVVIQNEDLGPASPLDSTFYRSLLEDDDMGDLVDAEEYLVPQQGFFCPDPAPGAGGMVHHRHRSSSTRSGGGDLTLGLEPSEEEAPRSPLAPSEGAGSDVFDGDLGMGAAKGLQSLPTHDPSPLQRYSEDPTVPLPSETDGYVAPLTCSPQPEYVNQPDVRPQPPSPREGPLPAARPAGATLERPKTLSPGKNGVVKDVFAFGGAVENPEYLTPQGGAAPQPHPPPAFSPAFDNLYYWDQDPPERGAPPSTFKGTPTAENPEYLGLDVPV

As to `O=C(Nc1ccc(NCCCN2CCOCC2)nc1)c1sc2ncnc3c2c1NC(=O)N3c1cccc(Br)c1` [Cpd 64, 5-(3-bromo-phenyl)-4-oxo-4,5-dihydro-3H-1-thia-3,5,6,8-tetraaza-acenaphthylene-2-carboxylic acid [6-(3-morpholin-4-yl-propylamino)-pyridin-3-yl]-amide], the inhibition at 1 µM against HER-2 turned out to be 57%. The IC50 at HER-2 is 0.447 µM; with BT474 breast carcinoma, at least 10 µM; in the assay with SKBR3 breast carcinoma, 100 µM; in assay [1], 10 µM. For the same compound, on c-Src kinase (human), the inhibition at 2 µM was -14%.
Consider `O=C(Nc1ccc(CN2CCOCC2)cc1)c1sc2ncnc3c2c1NC(=O)N3c1ccc(Sc2ccccc2)cc1` [Cpd 178, 4-oxo-5-(4-phenylsulfanyl-phenyl)-4,5-dihydro-3H-1-thia-3,5,6,8-tetraaza-acenaphthylene-2-carboxylic acid (4-morpholin-4-ylmethyl-phenyl)-amide], for which the IC50 at HER-2 was determined as 0.056 µM; in the assay on BT474 breast carcinoma it was 0.158 µM; in the assay on SKBR3 breast carcinoma, 0.292 µM; in assay [1], 53.4 µM.
As for `O=C(Nc1ccc(CN2CCOCC2)cc1)c1sc2ncnc3c2c1NC(=O)N3c1cccc(Br)c1` [Cpd 36, 5-(3-bromo-phenyl)-4-oxo-4,5-dihydro-3H-1-thia-3,5,6,8-tetraaza-acenaphthylene-2-carboxylic acid (4-morpholin-4-ylmethyl-phenyl)-amide], the IC50 is 10 µM in the assay on A375 malignant melanoma; 0.295 µM on HER-2; at least 100 µM in the assay on BT474 breast carcinoma; above 20 µM at c-Src kinase (human) (read-out: c-Src IC50 (in parentheses)); 100 µM in the assay on SKBR3 breast carcinoma; at least 10 µM in assay [2]. The compound also came in with an IC50 in assay [1] of 100 µM. For the same compound, the inhibition at 1 µM against HER-2 was 60%.
On to `O=C(Nc1ccc(CN2CCOCC2)cc1)c1sc2ncnc3c2c1NC(=O)N3c1ccc(OCc2ccccn2)c(Cl)c1` [Cpd 52, 5-[3-chloro-4-(pyridin-2-ylmethoxy)-phenyl]-4-oxo-4,5-dihydro-3H-1-thia-3,5,6,8-tetraaza-acenaphthylene-2-carboxylic acid (4-morpholin-4-ylmethyl-phenyl)-amide], for which the IC50 with A375 malignant melanoma was 100 µM; at HER-2, 0.246 µM; with BT474 breast carcinoma it was 5.98 µM; in the assay on SKBR3 breast carcinoma, 2.61 µM; in assay [2], at least 100 µM; in assay [1], 27 µM. Moreover, the inhibition at 1 µM against HER-2 amounted to 95%. Moreover, at c-Src kinase (human), the inhibition at 2 µM was 1%.
For `O=C(Nc1ccc(CN2CCCCC2)cc1)c1sc2ncnc3c2c1NC(=O)N3c1ccc(Sc2ccccc2)cc1` [Cpd 169, 4-oxo-5-(4-phenylsulfanyl-phenyl)-4,5-dihydro-3H-1-thia-3,5,6,8-tetraaza-acenaphthylene-2-carboxylic acid (4-piperidin-1-ylmethyl-phenyl)-amide], the IC50 on HER-2 is 0.026 µM; in the assay with BT474 breast carcinoma it was 0.383 µM; in the assay on SKBR3 breast carcinoma it was 0.144 µM; in assay [1] it was 4.28 µM.
On to `COc1ccc(NC(=O)c2sc3ncnc4c3c2NC(=O)N4c2ccc(OCc3ccccn3)c(Cl)c2)cc1OC` [Cpd 48, 5-[3-chloro-4-(pyridin-2-ylmethoxy)-phenyl]-4-oxo-4,5-dihydro-3H-1-thia-3,5,6,8-tetraaza-acenaphthylene-2-carboxylic acid (3,4-dimethoxy-phenyl)-amide], for which the IC50 in the assay with A375 malignant melanoma is 17.2 µM; in the assay with BT474 breast carcinoma, at least 10 µM; in the assay on SKBR3 breast carcinoma, 100 µM; in assay [2], at least 10 µM; in assay [1], 100 µM. In addition, the inhibition at 1 µM at HER-2 was determined as 45%. In addition, on c-Src kinase (human), the inhibition at 2 µM worked out at 7%.
Regarding `CN1CCC(NC(=O)c2sc3ncnc4c3c2NC(=O)N4c2ccc(Oc3ccc(F)cc3)cc2)CC1` [Cpd 118, 5-[4-(4-fluoro-phenoxy)-phenyl]-4-oxo-4,5-dihydro-3H-1-thia-3,5,6,8-tetraaza-acenaphthylene-2-carboxylic acid (1-methyl-piperidin-4-yl)-amide], the IC50 was 10 µM with A375 malignant melanoma, around 100 µM on HER-2 and at least 10 µM in assay [2]. Besides, the inhibition at 2 µM on c-Src kinase (human) was determined as 15%.
On the same counts, the results for `CC(C)(C)OC(=O)N1CCC(NC(=O)c2sc3ncnc4c3c2NC(=O)N4c2ccc3c(ccn3Cc3cccc(F)c3)c2)CC1` [Cpd 91, 4-({5-[1-(3-fluoro-benzyl)-1H-indol-5-yl]-4-oxo-4,5-dihydro-3H-1-thia-3,5,6,8-tetraaza-acenaphthylene-2-carbonyl}-amino)-piperidine-1-carboxylic acid tert-butyl ester] are 10 µM, 2.19 µM, 1 µM and -37%.
`O=C(O)c1sc2ncnc3c2c1NC(=O)N3c1ccc(OCc2ccccn2)c(Cl)c1` [Cpd 38, 5-[3-chloro-4-(pyridin-2-ylmethoxy)-phenyl]-4-oxo-4,5-dihydro-3H-1-thia-3,5,6,8-tetraaza-acenaphthylene-2-carboxylic acid]: the IC50 was 100 µM with A375 malignant melanoma; at least 100 µM in the assay with BT474 breast carcinoma; 100 µM in the assay with SKBR3 breast carcinoma; at least 100 µM in assay [2]; 100 µM in assay [1]. For the same compound, the inhibition at 1 µM against HER-2 is -7%. For the same compound, the inhibition at 2 µM against c-Src kinase (human) was 7%.
